Test results published in article PMC2637266, “Quantification of gamma-secretase modulation differentiates inhibitor compound selectivity between two substrates Notch and amyloid precursor protein” (Molecular Brain, 2008).
Read-outs that look alike come from different tables or passages of the source.

How the values were obtained:
[1] = biological target: T1, γ-secretase cleavage of chimeric APP-α-NOTCH (Homo sapiens, UniProt P49768); test: Nβ* ELISA from HEK293 cells expressing APP-α-Notch; assay type: cell-based
T1 construct: endogenous in cells; host or cells: HEK293 transiently transfected with APP-α-Notch
Text: (§1) Two cDNA constructs expressing chimeric APP and Notch were previously reported to generate chimeric "Notch-Aβ-like" (Nβ*) peptide. One construct has its transmembrane domain (TMD) replaced by the Notch TMD (APP-m-NOTCH) and the other with the juxtamembrane portion of the APP ectodomain (the α-secretase cleavage region) replaced by the corresponding sequence in Notch (APP-α-NOTCH). Taking advantage of different combinations of ELISA antibodies (see Methods), effects of cpd E on the generation of Aβ and Nβ* peptides from these chimeric APP-Notch substrates were quantified by ELISA.
(§2) Individual construct APP, APP-α-Notch or APP-m-Notch was transiently transfected into HEK293 cells. These chimeric protein expressing cells were treated with cpd E, and the levels of Aβ and Nβ* were measured by ELISA. […] Similar results were obtained when m-Notch was expressed in HEK293 cells. At least two magnitude of difference was observed, with EC50 for cpd E was […], compared to EC50 for Nβ* at ~1 nM (Fig. 3B).
(§3) Figure 3 Generation of Aβ and Nβ* from chimeric APP-Notch expressing cells. […] Levels of Nβ* in the media from cells expressing APP-α-Notch (dotted line) and levels of Aβ from APP expressing cells (solid line) were determined by ELISA. […] Levels of Aβ (solid line) and Nβ* (dotted line) were determined by ELISA. […]

[2] = biological target: T2, γ-secretase cleavage of APP (Homo sapiens, UniProt P49768); test: Aβ ELISA from HEK293 cells transiently transfected with APP; assay type: cell-based
T2 construct: endogenous in cells; host or cells: HEK293 stably expressing Swedish mutant human APP695, transiently transfected with NotchΔE
Text: as §1, §2, §3

Aβ generation = tested on: Aβ generation; parameters: method as in PMID 10915801; settings: found as low as; read-out: IC50 for Aβ generation in cultured cells; cited from earlier work
[3] = biological target: T3, γ-secretase cleavage of chimeric APP-m-NOTCH (Homo sapiens, UniProt P49768); test: Nβ* ELISA from HEK293 cells expressing APP-m-Notch; assay type: cell-based
T3 construct: endogenous in cells; host or cells: HEK293 transiently transfected with APP-m-Notch
Text: as §1, §2, §3

Compound: C[C@H](NC(=O)Cc1cc(F)cc(F)c1)C(=O)N[C@H]1N=C(c2ccccc2)c2ccccc2N(C)C1=O [cpd E, (S,S)-2-[2-(3,5-Difluorophenyl)-acetylamino]-N-(1-methyl-2-oxo-5-phenyl-2,3-dihydro-1H-benzo [e] [1,4]diazepin-3-yl)-propionamide]
- EC50 [1]: ~8000 pM
- EC50 ([2]; EC for inhibiting 50% of Aβ production, APP expressing HEK293, α-Notch experiment, Fig. 3A): < 100 pM
- EC50 ([2]; HEK293, m-Notch experiment, Fig. 3B, read-out: EC50 for APP (Aβ)): ~30 pM
- IC50 (Aβ generation): 300 pM
- EC50 [3]: ~1000 pM
